From patent US20250154144A1 (CHILDREN'S HOSPITAL MEDICAL CENTER, priority 2021, published 2025)
Where a chain is given by its changes, count along the chain named.

Tests used:
IRAK1 = IRAK1 (Homo sapiens, UniProt P51617); test: DiscoverX KINOMEscan competition binding, IRAK1; design: purchased RBC (Reaction Biology) HotSpot assay
FLT3 N841I = biological target: T1, FLT3 N841I (Homo sapiens, UniProt P36888, N841I); test: DiscoverX KINOMEscan competition binding, FLT3 N841I
T1 construct: purchased DiscoverX (KINOMEscan)
T1 sequence (P36888 27-993 N841I): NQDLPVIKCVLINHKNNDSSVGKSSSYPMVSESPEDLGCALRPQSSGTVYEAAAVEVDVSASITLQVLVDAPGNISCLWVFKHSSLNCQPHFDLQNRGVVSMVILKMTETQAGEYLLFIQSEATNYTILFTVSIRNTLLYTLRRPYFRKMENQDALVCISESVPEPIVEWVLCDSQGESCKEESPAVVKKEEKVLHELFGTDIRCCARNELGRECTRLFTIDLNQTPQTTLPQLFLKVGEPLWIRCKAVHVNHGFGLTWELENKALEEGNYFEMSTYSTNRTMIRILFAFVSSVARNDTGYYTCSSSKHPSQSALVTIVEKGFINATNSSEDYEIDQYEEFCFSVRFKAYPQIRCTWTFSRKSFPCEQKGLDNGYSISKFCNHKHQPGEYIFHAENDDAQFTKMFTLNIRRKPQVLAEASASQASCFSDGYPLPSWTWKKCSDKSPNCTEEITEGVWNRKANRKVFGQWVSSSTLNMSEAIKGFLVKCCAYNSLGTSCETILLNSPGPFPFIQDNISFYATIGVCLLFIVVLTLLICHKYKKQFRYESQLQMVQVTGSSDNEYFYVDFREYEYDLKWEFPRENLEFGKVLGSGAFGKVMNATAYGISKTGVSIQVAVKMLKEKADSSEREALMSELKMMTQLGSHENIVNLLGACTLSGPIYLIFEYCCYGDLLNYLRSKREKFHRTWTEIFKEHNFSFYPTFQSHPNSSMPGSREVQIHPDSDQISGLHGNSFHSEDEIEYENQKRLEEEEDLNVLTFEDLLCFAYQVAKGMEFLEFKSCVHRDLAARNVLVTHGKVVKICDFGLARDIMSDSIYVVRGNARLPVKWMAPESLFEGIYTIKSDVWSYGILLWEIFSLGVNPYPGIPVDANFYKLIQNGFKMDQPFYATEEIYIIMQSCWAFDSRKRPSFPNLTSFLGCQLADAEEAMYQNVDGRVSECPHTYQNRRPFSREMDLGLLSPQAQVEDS

FLT3 R834Q = biological target: T2, FLT3 R834Q (Homo sapiens, UniProt P36888, R834Q); test: DiscoverX KINOMEscan competition binding, FLT3 R834Q
T2 construct: purchased DiscoverX (KINOMEscan)
T2 sequence (P36888 27-993 R834Q): T1 sequence (P36888 27-993 N841I) with R808Q, I815N

FLT3 K663Q = biological target: T3, FLT3 K663Q (Homo sapiens, UniProt P36888, K663Q); test: DiscoverX KINOMEscan competition binding, FLT3 K663Q
T3 construct: purchased DiscoverX (KINOMEscan)
T3 sequence (P36888 27-993 K663Q): T1 sequence (P36888 27-993 N841I) with K637Q, I815N

Chain of IRAK1 (P51617 whole entry): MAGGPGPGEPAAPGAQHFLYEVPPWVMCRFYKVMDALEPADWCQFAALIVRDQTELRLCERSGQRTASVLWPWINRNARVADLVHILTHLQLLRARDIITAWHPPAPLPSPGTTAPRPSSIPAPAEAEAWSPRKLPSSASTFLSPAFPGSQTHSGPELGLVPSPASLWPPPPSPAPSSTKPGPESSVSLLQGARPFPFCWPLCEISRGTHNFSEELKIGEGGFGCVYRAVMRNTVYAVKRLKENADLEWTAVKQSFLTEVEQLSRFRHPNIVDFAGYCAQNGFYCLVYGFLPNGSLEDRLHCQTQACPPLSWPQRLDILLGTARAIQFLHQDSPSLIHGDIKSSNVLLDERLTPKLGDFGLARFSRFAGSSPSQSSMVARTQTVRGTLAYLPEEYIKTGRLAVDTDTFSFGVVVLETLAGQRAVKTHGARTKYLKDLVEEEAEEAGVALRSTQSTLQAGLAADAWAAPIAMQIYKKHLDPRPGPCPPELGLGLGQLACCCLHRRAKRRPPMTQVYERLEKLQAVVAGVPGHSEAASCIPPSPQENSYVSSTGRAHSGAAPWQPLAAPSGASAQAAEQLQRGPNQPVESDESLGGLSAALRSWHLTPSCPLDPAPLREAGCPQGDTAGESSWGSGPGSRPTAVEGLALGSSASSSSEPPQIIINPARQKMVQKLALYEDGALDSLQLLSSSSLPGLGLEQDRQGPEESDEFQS

Row | Kd (IRAK1) [nM] | Kd (FLT3 N841I) [nM] | Kd (FLT3 R834Q) [nM] | Kd (FLT3 K663Q) [nM] | Structure (SMILES)
1 | 6.4 | 5.6 | 9.3 | 18 | COc1cc2ncc(-c3cncc(N[C@H]4CNC[C@@H]4F)n3)n2nc1C1CC1 [Compound 22, 6-(6-cyclopropyl-7-methoxyimidazo[1,2-b]pyridazin-3-yl)-N-((3S,4S)-4-fluoropyrrolidin-3-yl)pyrazin-2-amine]
2 | 5.3 | 0.51 | 1.8 | 3.8 | COc1cc2ncc(-c3cncc(N[C@H]4CNCC[C@@H]4F)n3)n2nc1C1CC1 [Compound 24, 6-(6-cyclopropyl-7-methoxyimidazo[1,2-b]pyridazin-3-yl)-N-((3S,4S)-4-fluoropiperidin-3-yl)pyrazin-2-amine]
3 | 2.6 | 0.61 | 1.4 | 2.2 | COc1cc2ncc(-c3ccnc(N[C@H]4CNC[C@@H]4F)n3)n2nc1C1CC1 [Compound 49, 4-(6-cyclopropyl-7-methoxyimidazo[1,2-b]pyridazin-3-yl)-N-((3S,4S)-4-fluoropyrrolidin-3-yl)pyrimidin-2-amine]

The next lines start with the compound.

Row | Structure (SMILES) | Kd (IRAK1) [nM] | Kd (FLT3 N841I) [nM] | Kd (FLT3 R834Q) [nM] | Kd (FLT3 K663Q) [nM]
4 | CC(O)(c1cn2c(-c3ccnc(N[C@H]4CNCC[C@@H]4F)n3)cnc2cn1)C(F)(F)F (single isomer, unassigned) [Compound 72] | 1.5 | 7.4 | 14 | 21
5 | F[C@H]1CCNC[C@@H]1Nc1cncc(-c2cnc3cc(OC4CC4)ccn23)n1 [Compound 12, 6-(7-cyclopropoxyimidazo[1,2-a]pyridin-3-yl)-N-((3S,4S)-4-fluoropiperidin-3-yl)pyrazin-2-amine] | 7.5 | 4.7 | 18 | 13
6 | COc1cc2ncc(-c3ccnc(N[C@@H]4CCCNC4)n3)n2cc1C(C)(C)O [Compound 44, (R)-2-(7-methoxy-3-(2-(piperidin-3-ylamino)pyrimidin-4-yl)imidazo[1,2-a]pyridin-6-yl)propan-2-ol] | 0.3 | 0.97 | 1.4 | 2.9
7 | COc1cc2ncc(-c3ccnc(N[C@H]4CNCC[C@@H]4F)n3)n2nc1C1CC1 [Compound 51, 4-(6-cyclopropyl-7-methoxyimidazo[1,2-b]pyridazin-3-yl)-N-((3S,4S)-4-fluoropiperidin-3-yl)pyrimidin-2-amine] | 2.4 | 0.62 | 1.1 | 0.82
